Reference: patent publication US8652785B2, “Method of screening a modulator of endothelial NO synthase comprising the use of heme binding protein 1” (Sanofi, priority 2008, dated 2014)
pEC50: −log10 of the molar value.

Key:
[1] = test system: HEBP1_predicted mRNA; assay: HEBP1_predicted expression in cardiac tissue of rats with chronic heart failure after myocardial infarction; type: in vivo; settings: 10 mg/kg/day for 9 weeks, versus placebo, mRNA relative to GAPDH
Description: Rats were divided in three groups. One group was sham-operated (group 1), whereas in groups 2 and 3 chronic heart failure was induced by myocardial infarction. Only, the latter group was treated with AVE3085 (10 mg/(kg day)) for 9 weeks. Thereafter, mRNA expression (HEBP1 in comparison to GAPDH) was determined in heart tissue. Means±SD of 7 experiments are shown, * p<0.05 vs. sham operated.
In another context, an animal study was conducted, in which rats developed chronic heart failure after an induced myocardial infarction. From available RNA samples from cardiac tissue it was possible to determine the expression of HEBP1_predicted at the mRNA level. […]
Isolation of RNA from the cell types used was carried out using the RNeasy® mini-isolation method. […] The concentration and purity of the prepared RNA were determined using a NanoDrop® ND-1000 spectrophotometer (NanoDrop Technologies Inc., Wilmington, USA). In this, from a total volume of 2 μl, the absorption of the samples was measured at a wavelength of λ=260 nm (A260) for nucleic acids. Conversion of the measured absorption to the concentration of the RNA solution was carried out by means of the extinction coefficient of 40 ng×cm^−1×μl^−1 on the basis of the Lambert-Beer law. […] The RNA obtained was then diluted in the ratio 1:5 and either used immediately in a quantitative RT-PCR or stored at −80° C. for future use. […]

[2] = test system: eNOS promoter; assay: eNOS-transcription test (eNOS-promoter luciferase reporter cell line EA.csr03); type: cell-based; settings: Homo sapiens; EA.csr03 cells, nonlinear regression; read-out: EC50 in the eNOS-transcription test
Description: The EA.csr03 cells are cells of a stable eNOS-promoter luciferase cell line. It was obtained by transfection of EA.hy926 cells with a firefly luciferase reporter construct, with a 3.5 kb fragment of the eNOS-promoter added. Cultivation of these cells was carried out with IMDM with GlutaMAX™ I supplemented with 100 U/ml penicillin, 100 μg/ml streptomycin, 10% FCS and 0.4 mg/ml geneticin as selection antibiotic. The EA.hy926 cells are a stable human cell line, which was obtained by fusion of HUVEC with the human […] cell line A549. This cell line is characterized by expression of specific endothelial cell markers, e.g. the “van-Willebrand factor”. The cells used are an original culture of Cora Jean Edgell of passage 32. The cells were cultivated in IMDM with GlutaMAX™ I supplemented with 100 U/ml penicillin, 100 μg/ml streptomycin, HAT Hybri-Max™ medium additive (hypoxanthine, aminopterin and thymidine) and Biotect protective medium.
For transcription test for eNOS promoter activation, 20 000 cells per well of the reporter cell line EA.csr03 were sown in a white 96-well cell culture plate. After 24 hours, various dilutions of the substance in cell culture medium were prepared starting from DMSO stock solutions and were preincubated for 10 min at 37° C. on a water bath. Then these incubation media (100 μl/well) were added to the cells. After incubation for 18 hours, the cells were washed twice with DPBS (100 μl/well) and luciferase lysis buffer (50 μl/well) was added. After 10 min, the solubilized luciferase-substrate luciferin (100 μl/well) was added to the cell lysates. During the luciferase-catalyzed oxidation of luciferin to oxyluciferin there is release of chemiluminescence. […] The light units released were measured in the Genios microplate reader from Tecan Deutschland (Crailsheim, Germany).

[3] = test system: eNOS promoter; assay: eNOS-transcription test after siRNA transfection of EA.csr03 cells; type: cell-based, human
Description: For liposomal transfection of siRNA in endothelial cells, EA.hy926 or EA.csr03 cells were sown with a density of 50 000 cells per well in a volume of 100 μl growth medium in 96-well plates. After incubation for 24 h in an incubator, the cells were washed with sterile DPBS and were covered in each case with 100 μl/well of serum-free and antibiotic-free special medium Opti-MEM® I. Then the siRNAs (see below) used were preincubated with Lipofectamine™ 2000 in accordance with the manufacturer's instructions and finally 50 μl/well of the transfection mixture was added to the cells. Unless stated otherwise, the siRNAs were used at final concentrations of 100 nM. Per well, after previous optimization, 0.8 μl of Lipofectamine™ 2000 was used for transfection of the EA.hy926 cells, and 0.5 μl for the EA.csr03 cells. After the cells had been incubated in an incubator for 6 hours, the transfection medium was replaced with normal growth medium and the next experimental steps were carried out in the time frame of 24-72 hours after transfection. Primary HUVECs were sown at 100 000 cells per well in Collagen I-coated 6-well plates and were cultivated in normal growth medium up to 60-70% confluence. Prior to transfection, the cells were washed with sterile DPBS and covered in each case with 800 μl/well of serum-free and antibiotic-free special medium Opti-MEM® I. 6 μl Lipofectin® and siRNA at a final concentration of 100 nM were used per well. […]
The survey of the efficiencies of different siRNAs to the target proteins were tested. The respective residual mRNA was determined by quantitative RT-PCR, 24 hours after transfection of human endothelial cells (EA.hy926/EA.csr03). […] After cell lysis, the luciferase activity and the total cellular protein content were determined.
For transcription test for eNOS promoter activation, 20 000 cells per well of the reporter cell line EA.csr03 were sown in a white 96-well cell culture plate. […] The light units released were measured in the Genios microplate reader from Tecan Deutschland (Crailsheim, Germany). […]

- pEC50 [2]: 6.40
SMILES: O=C(NC1Cc2ccccc2C1)c1ccc2c(c1)OC(F)(F)O2 [AVE3085]
- influence of treatment on expression of HEBP1_predicted in heart [1]: did not show any influence at all
- induction of the eNOS promoter versus DMSO-control, HEBP1 switched off using siHEBP1 25 ([3]; AVE3085 5 μM, 18 h, siHEBP1 25): 1.6 factor
- induction of the eNOS promoter versus DMSO-control, siLV2-treated control cells ([3]; AVE3085 5 μM, 18 h, siLV2-control): 2.4 factor
- reduction of eNOS-promoter activation by AVE3085 after switching-off of HEBP1 by siRNA versus siLV2-control ([3]; HEBP1 siRNA): 64%
